Test results as given in patent US10058611B2, “Use of α-(8-quinolinyloxy) mono-substituted phthalocyanine zinc for treatment of psoriasis” (BEIJING GUIQIANJIN MEDICAL SCIENCE AND TECHNOLOGY CO., LTD., priority 2014, dated 2018).

Columns and labels:
HaCaT cells = assay: Proliferation inhibition of HaCaT cells after 670 nm irradiation (MTT); assay type: cell-based, human
Experimental: HaCaT cell line, a cell line of normally mutated and immortalized human keratinocyte, is one of the most wildly used cell models for the currently study of psoriasis. As compared with primary cultured keratinocytes, HaCaT cells have similar biological properties, but its operation is simpler.
HaCaT cells were routinely cultured in RPMI-1640 medium containing 10% fetal bovine serum at 37° C. in a 5% CO2 incubator. The cells were harvested in logarithmic growth phase, digested with 0.25% trypsin (containing EDTA), adjusted to a cell density of 2×10^5 cells/mL and seeded in a 96-well plate, 100 μL per each well; after incubation for 24 hours, α-(8-quinolinyloxy) mono-substituted phthalocyanine zinc was added at concentrations of 0.001 μg/mL, 0.01 μg/mL, 0.1 μg/mL, 1 μg/mL and 10 μg/mL respectively and three complex wells were set for each concentration. […] The culture medium was discarded; 200 μL of MTT solution (0.5 mg/mL) was added to each well; the cells were incubated for additional 4 hours; then, 200 μL of dimethyl sulfoxide was added to each well and the absorbance value of each well was measured by a microplate reader at 545 nm (reference wavelength: 450 nm). 3 times of parallel measurements were conducted and the mean value was calculated. The inhibition rate of proliferation was calculated and IC50 was calculated by Bliss method.

[1] = system: mouse vaginal epithelial cells; assay: Diethylstilbestrol-induced excessive proliferation of mouse vaginal epithelial cells (PDT, mitotic index); assay type: in vivo, ICR mice; conditions: for Mitotic Index: x ± s, n = 10
From the text: Estrogen (for example diethylstilbestrol) may induce the active proliferation of mouse vaginal epithelial cells, thereby accelerating the turnover of epithelial cells; and colchicine may make the cell cycle stagnated in the mitotic metaphase and then the inhibition effects of a test substance on mitosis and excessive cell proliferation may be observed. This model may simulate the characteristic of overly rapid proliferation of epithelial cells in psoriasis patients, is simple and easy to obtain, and is one of the most common animal models in the assessment of drug efficacy for psoriasis.
Sixty ICR mice were taken and randomly divided into 6 groups according to weights: blank control group, model control group, irradiation without administration group and PDT groups 1, 2 and 3. Except for the blank control group, all of other groups were intraperitoneally injected with diethylstilbestrol (0.2 mg/mouse), once-daily for 3 days. […] After protection from light for 6 hours, the PDT groups 1, 2 and 3 and the irradiation without administration group were subjected to laser irradiation by using a semiconductor photodynamic therapeutic instrument; the irradiation conditions were 100 mW×540 s, 300 mW×60 s, 100 mW×60 s and 300 mW×540 s, respectively; the spot diameter was 3 cm; and the abdomen of mice was irradiated. The blank control group and the model control group were not subjected to irradiation. After one week post-irradiation, mice of each group were intraperitoneally injected with colchicine at a dose of 2 mg/kg, making the cell mitosis stagnated in the mitotic metaphase. After 4 hours post-injection of colchicine, animals were sacrificed by anesthesia. Mouse vagina was taken, fixed in 10% formaldehyde solution, conventionally dehydrated, embedded in paraffin, sliced and stained with HE; 300 basal cells were counted under a microscope and the number of mitotic cells was calculated and the mitotic index was calculated (number of mitotic cells per 100 basal cells).

[2] = system: propranolol-induced psoriasis-like lesions; assay: Propranolol-induced psoriasis-like lesions on guinea pig ears (PDT, histology); assay type: in vivo
From the text: Propranolol is a β-adrenergic receptor blocking agent, and it may be applied to guinea pig skin to block the β-adrenergic receptor in keratinocytes and thereby reducing the intracellular cAMP level, leading to histopathological changes similar to psoriasis such as hyperkeratosis, parakeratosis and acanthosis of animal epidermis, which are the same as human psoriatic lesions at the molecular level. Application of propranolol to ear skin of guinea pig to replicate a psoriasis-like skin model is often used for observing the therapeutic effect of a drug on psoriasis.
Preparation method for 5% propranolol liniment: dissolving 5 g powder of propranolol API in 50 mL of 50% ethanol, adding 5 g of polyoxyethylene pyrrolidone 30, 2.5 mL of azone, 2.5 mL of propylene glycol, and finally adding 50% ethanol to 100 mL. 5% propranolol was prepared fresh for use. Forty-two guinea pigs were randomly divided into a blank control group and a model-establishing group according to weights, 6 guinea pigs in the blank control group and 36 guinea pigs in the model-establishing group. 5% propranolol was applied uniformly on the back of both ears of guinea pigs in the model-establishing group at a dose of 0.1 mL/ear, once in the morning and once in the afternoon, and the administration lasted for continuous 4 weeks. After the model was established, the guinea pigs in the model-establishing group were randomly divided into 6 groups according to weights again, 6 guinea pigs in each group. The 6 groups were model control group, irradiation without administration group, administration without irradiation group, injection administration group and topical administration groups 1 and 2, respectively. The administration without irradiation group and the injection administration group were intravenously injected with α-(8-quinolinyloxy) mono-substituted phthalocyanine zinc solution at a dose of 0.45 mg/kg and the topical administration groups 1 and 2 were respectively applied with 5% and 1% α-(8-quinolinyloxy) mono-substituted phthalocyanine zinc liniments at a dose of 0.1 mL/ear. […] were not administrated. After protection from light for 24 hours, the irradiation without administration group, the injection administration group and the topical administration groups 1 and 2 were subjected to laser irradiation by using a semiconductor photodynamic therapeutic instrument with the following irradiation conditions: output power, 1,000 mW; spot diameter, 6 cm; irradiation time, 399 s; irradiation dose, 14 J/cm^2. After irradiation, animals were protected from light for 48 hours, and then recovered for 3 days. A photodynamic therapy (administration, irradiation, protection from light and recovery) was repeated once according to the abovementioned steps. […]

## α-(8-quinolinyloxy) mono-substituted phthalocyanine zinc
HaCaT cells; 0.001-10 μg/mL, 670 nm irradiation
  Proliferation of HaCaT cells (result in words): inhibit the proliferation of HaCaT cells in a concentration-dependent manner
HaCaT cells; 4 h incubation, 670 nm irradiation 1500 mW, spot 8 cm, 180 s, MTT 48 h after irradiation, Bliss method
  IC50, inhibition of proliferation of HaCaT cells: 0.197 ± 0.022 µg/mL
[1]; PDT group 1: dose 2 mg/kg i.p., irradiation 540 s, 100 mW
  Mitotic Index: 6.4 ± 2.2^##^ %
[1]; PDT group 2: dose 1 mg/kg i.p., irradiation 60 s, 300 mW
  Mitotic Index: 7.2 ± 2.6 %
[1]; PDT group 3: dose 0.5 mg/kg i.p., irradiation 60 s, 100 mW
  Mitotic Index: 10.3 ± 4.3 %
[1]; PDT groups 1, 2 and 3
  Mitotic index compared with the model control group (result in words): significantly reduced
[2]; administration without irradiation group: 0.45 mg/kg i.v., no laser
  Psoriasis-like lesions of the guinea pig ear (result in words): improved to some extent but not obviously
[2]; injection administration group: 0.45 mg/kg i.v., laser 1,000 mW, 399 s, 14 J/cm^2, two photodynamic therapies
  Psoriasis-like lesions of the guinea pig ear (result in words): improved significantly
[2]; topical administration group 1: 5% liniment 0.1 mL/ear, laser 1,000 mW, 399 s, 14 J/cm^2, two photodynamic therapies
  Psoriasis-like lesions of the guinea pig ear (result in words): improved significantly
[2]; topical administration group 2: 1% liniment 0.1 mL/ear, laser 1,000 mW, 399 s, 14 J/cm^2, two photodynamic therapies
  Psoriasis-like lesions of the guinea pig ear (result in words): improved significantly
